Experiment [1] deals with Human RSV-B (genotype B, strain 9320). Kind of experiment: RSV-B assay (qPCR or ATPlite) in A549 cells. It is filed as cell-based. To be noted: human respiratory syncytial virus, 144 h, strain 9320, MOI 0.5, 6 days post infection, qPCR or ATPlite readout. The source says:
Hep-2 cells, (originally derived from tumors grown in irradiated-cortisonised weanling rats that had been injected with epidermoid carcinoma tissue from a person's larynx, but later found to be indistinguishable from HeLa cells by PCR DNA analysis), were used for the culturing of genotype B, strain 9320. Flasks were inoculated with RSV-B and viral stocks were collected once cytopathic effect (CPE) was greater than 90%. Viral stocks in 25% sucrose media were snap frozen using liquid nitrogen to increase viral stability. Viral stock titers were quantified by tissue culture infectious dose 50% (TCID50) using 8,000 cells per well and 5-fold viral dilutions across a 96-well plate, cultured for 4 days. Viral stock titers were also quantified by a plaque forming unit assay, as described elsewhere.
The assay is run as follows: A549 cells (originally derived through explant culture from a person's carcinomatous lung tissue) are seeded into the inner 60 wells of a 96-well plate at 3,000 cells per well in a volume of 50 μL using A549 growth media (F-12K Media, 1% Penn/Strep, 1% nonessential amino acids, 10% heat-inactivated FBS). 2-fold serial dilutions of control and test compounds are added to the wells in duplicate in a total volume of 25 μL. Viral stock is then added to the wells at a multiplicity of infection (MOI) of 0.5 in a volume of 25 μL, bringing the total volume of each well to 100 μL. The MOI is calculated using the PFU/mL, or TCID50 if unavailable. Each 96-well plate has a control column of 6 wells with cells and virus but no compound (negative control, max CPE), a column with cells but no compound or virus (positive control, minimum CPE), and a column with no cells or virus or compound (background plate/reagent control). The control wells with cells but no virus are given an additional 25 μL of growth media containing an equal quantity of sucrose as those wells receiving the viral stock in order to keep consistent in media and volume conditions. The outer wells of the plate are filled with 125 μL of moat media (DMEM, 1% Penn/Strep) to act as a thermal and evaporative moat around the test wells. 6 days post infection, the plates are read using qPCR or ATP lite (50 μL added per well), which quantifies the amount of ATP (a measure of cell health) present in each well. Assay plates treated with APTlite are read using the Envision luminometer. […] EC50 ranges are as follows: A<0.4 μM; B 0.4-0.8 μM; C>0.8 μM.
A general note: Quantitative PCR measures a nucleic acid by following its amplification.

Experiment [2] deals with Human RSV-A (“Long” strain). Kind of experiment: RSV-A assay (CPE, ATPlite) in Hep-2 cells. Particulars: human respiratory syncytial virus, 120 h, MOI 0.1, 5-day incubation, ATPlite readout. It is filed as cell-based. The source says:
Hep-2 cells, (originally derived from tumors grown in irradiated-cortisonised weanling rats that had been injected with epidermoid carcinoma tissue from a person's larynx, but later found to be indistinguishable from HeLa cells by PCR DNA analysis), were used for the culturing of genotype A, “Long” strain RSV. Flasks were inoculated with RSV and viral stocks were collected once cytopathic effect (CPE) was greater than 90%. Viral stocks in 25% sucrose media were snap frozen using liquid nitrogen to increase viral stability. Viral stock titers were quantified by tissue culture infectious dose 50% (TCID50) using 8,000 cells per well and 3-fold viral dilutions across a 96-well plate, cultured for 4 days. Viral stock titers were also quantified by a plaque forming unit assay, as described elsewhere.
Following extensive parameter testing, the final assay is run as follows: Hep-2 cells are seeded into the inner 60 wells of a 96-well plate at 8,000 cells per well in a volume of 50 μL using Growth Media (DMEM without phenol red, 1% L-Glut, 1% Penn/Strep, 1% nonessential amino acids, 10% heat-inactivated FBS). 2-fold serial dilutions of control and test compounds are added to the wells in duplicate in a total volume of 25 μL. Viral stock is then added to the wells at a multiplicity of infection (MOI) of 0.1 in a volume of 25 μL, bringing the total volume of each well to 100 μL. The MOI is calculated using the PFU/mL, or TCID50 if unavailable. Each 96-well plate has a control column of 6 wells with cells and virus but no compound (negative control, max CPE), a column with cells but no compound or virus (positive control, minimum CPE), and a column with no cells or virus or compound (background plate/reagent control). The control wells with cells but no virus are given an additional 25 μL of growth media containing an equal quantity of sucrose as those wells receiving the viral stock in order to keep consistent in media and volume conditions. The outer wells of the plate are filled with 125 μL of moat media (DMEM, 1% Penn/Strep) to act as a thermal and evaporative moat around the test wells. Following a 5-day incubation period, the plates are read using ATPlite (50 μL added per well), which quantifies the amount of ATP (a measure of cell health) present in each well. Assay plates are read using the Envision luminometer. In parallel, cytotoxicity is examined on an additional 96-well plate treated in an identical manner, but substituting the 25 μL of viral stock for 25 μL of growth media. […] EC50 ranges are as follows: A<0.4 μM; B 0.4-0.8 μM; C>0.8 μM.
(In ATP-based viability assays light output follows the ATP content of the culture.)

The values below come from US11912695B2, “Benzodiazepine derivatives as RSV inhibitors” (ENANTA PHARMACEUTICALS, INC., priority 2019, dated 2024).

For `Cc1ncc(-c2cc(C(F)(F)F)cnc2-c2nnc(NC3N=C(c4ccccc4)c4ccccc4NC3=O)o2)cn1` (stereo not shown) [Example 1], the EC50 in experiment [1] and in experiment [2] was less than 400 nM each time.
`O=C1Nc2ccccc2C(c2ccccc2)=NC1Nc1nnc(-c2ncc(C(F)(F)F)cc2-c2cncnc2)o1` (stereo not shown) [Example 2]: the EC50 in experiment [1] and in experiment [2] was more than 800 nM in each case.
In the case of `COc1ncc(-c2cc(C(F)(F)F)cnc2-c2nnc(NC3N=C(c4ccccc4)c4ccccc4NC3=O)o2)cn1` (stereo not shown) [Example 3], the EC50 in experiment [1] and in experiment [2] was 400 to 800 nM each time.
As for `N#Cc1ncc(-c2cc(C(F)(F)F)cnc2-c2nnc(NC3N=C(c4ccccc4)c4ccccc4NC3=O)o2)cn1` (stereo not shown) [Example 5], the EC50 (in general, the concentration that produces a half-maximal response) in experiment [2] is more than 800 nM.
As for `O=C1Nc2ccccc2C(c2ccccc2)=NC1Nc1nnc(-c2ncc(C(F)(F)F)cc2-c2cnc(CF)nc2)o1` (stereo not shown) [Example 6], the EC50 in experiment [2] is less than 400 nM.
Turning to `O=C1Nc2ccccc2C(c2ccccc2)=NC1Nc1nnc(-c2ncc(C(F)(F)F)cc2-c2cnc(C3CC3)nc2)o1` (stereo not shown) [Example 7], the EC50 in experiment [1] and in experiment [2] was less than 400 nM throughout.
In the case of `CCc1ncc(-c2cc(C(F)(F)F)cnc2-c2nnc(NC3N=C(c4ccccc4)c4ccccc4NC3=O)o2)cn1` (stereo not shown) [Example 8], the EC50 in experiment [1] and in experiment [2] was less than 400 nM each time.
Consider `O=C1Nc2ccccc2C(c2ccccc2)=NC1Nc1nnc(-c2ncc(C(F)(F)F)cc2-c2cnc(CO)nc2)o1` (stereo not shown) [Example 9], for which the EC50 in experiment [1] and in experiment [2] was more than 800 nM each time.
On to `O=C1Nc2ccccc2C(c2ccccc2)=NC1Nc1nnc(-c2ncc(C(F)(F)F)cc2-c2cnc(C(F)(F)F)nc2)o1` (stereo not shown) [Example 10], for which the concentration for a half-maximal effect (EC50) in experiment [1] and in experiment [2] was more than 800 nM each time.
For the molecule `CC(F)(F)c1ncc(-c2cc(C(F)(F)F)cnc2-c2nnc(NC3N=C(c4ccccc4)c4ccccc4NC3=O)o2)cn1` (stereo not shown) [Example 11], the results for the EC50 in experiment [1] and in experiment [2] were 400 to 800 nM and more than 800 nM, respectively.
For `CC(C)(F)c1ncc(-c2cc(C(F)(F)F)cnc2-c2nnc(NC3N=C(c4ccccc4)c4ccccc4NC3=O)o2)cn1` (stereo not shown) [Example 12] the same measures were more than 800 nM and more than 800 nM.
For `O=C1Nc2ccccc2C(c2ccccc2)=NC1Nc1nnc(-c2ncc(C(F)(F)F)cc2-c2cnc(C3CCC3)nc2)o1` (stereo not shown) [Example 13] the same measures were less than 400 nM and 400 to 800 nM.
Take `O=C1Nc2ccccc2C(c2ccccc2)=NC1Nc1nnc(-c2ncc(C(F)(F)F)cc2-c2cnc(Cl)nc2)o1` (stereo not shown) [Example 14, 3-((5-(3-(2-chloropyrimidin-5-yl)-5-(trifluoromethyl)pyridin-2-yl)-1,3,4-oxadiazol-2-yl)amino)-5-phenyl-1,3-dihydro-2H-benzo[e][1,4]diazepin-2-one]: the EC50 in experiment [1] and in experiment [2] was more than 800 nM in each case.
For the molecule `CCc1ncc(-c2cccnc2-c2nnc(NC3N=C(c4ccccc4)c4ccccc4NC3=O)o2)cn1` (stereo not shown) [Example 15], the EC50 was less than 400 nM in experiment [1] and more than 800 nM in experiment [2].
As to `O=C1Nc2ccccc2C(c2ccccc2)=NC1Nc1nnc(-c2ncccc2-c2cnc(C3CC3)nc2)o1` (stereo not shown) [Example 16], the figures for the EC50 in experiment [1] and in experiment [2] were less than 400 nM and 400 to 800 nM, respectively.
As to `O=C1Nc2ccccc2C(c2ccccc2)=NC1Nc1nnc(-c2ncc(C(F)(F)F)cc2-c2cnc(F)nc2)o1` (stereo not shown) [Example 17], the EC50 in experiment [1] and in experiment [2] was more than 800 nM each time.
Turning to `C=Cc1ncc(-c2cc(C(F)(F)F)cnc2-c2nnc(NC3N=C(c4ccccc4)c4ccccc4NC3=O)o2)cn1` (stereo not shown) [Example 18], the EC50 in experiment [1] was less than 400 nM; in experiment [2], 400 to 800 nM.
For `C#Cc1ncc(-c2cc(C(F)(F)F)cnc2-c2nnc(NC3N=C(c4ccccc4)c4ccccc4NC3=O)o2)cn1` (stereo not shown) [Example 19] the same measures were 400 to 800 nM and more than 800 nM.
For `O=C1Nc2ccccc2C(c2ccccc2)=NC1Nc1nnc(-c2ncc(C(F)(F)F)cc2-c2cnc(NC3CC3)nc2)o1` (stereo not shown) [Example 20] the same measures were less than 400 nM and 400 to 800 nM.
With `Cc1ncc(-c2nc(C(F)(F)F)ccc2-c2nnc(N[C@H]3N=C(c4ccccc4)c4ccccc4NC3=O)o2)cn1` [Example 21], the EC50 in experiment [1] is less than 400 nM; in experiment [2], 400 to 800 nM.
For `O=C1Nc2ccccc2C(c2ccccc2)=N[C@@H]1Nc1nnc(-c2ccc(C(F)(F)F)nc2-c2cnc(C3CC3)nc2)o1` [Example 22] the same measures were less than 400 nM and 400 to 800 nM.
For `O=C1Nc2ccccc2C(c2ccccc2)=NC1Nc1nnc(-c2cccnc2-c2cnc(C3CC3)nc2)o1` (stereo not shown) [Example 23] the same measures were less than 400 nM and more than 800 nM.
For `O=C1Nc2c(F)cccc2C(c2ccccc2)=N[C@@H]1Nc1nnc(-c2ncc(C(F)(F)F)cc2-c2cnc(C3CC3)nc2)o1` [Example 24] the same measures were less than 400 nM and less than 400 nM.
On to `O=C1Nc2ccccc2C(c2ccccc2)=N[C@@H]1Nc1nnc(-c2ncc(C(F)(F)F)cc2-c2cnc(C3CC3)nc2)o1` [Example 25], for which the EC50 in experiment [1] and in experiment [2] was less than 400 nM each time.
Take `Cc1ncc(-c2cc(C(F)(F)F)cnc2-c2nnc(N[C@H]3N=C(c4ccccc4)c4ccccc4NC3=O)o2)cn1` [Example 26]: the EC50 in experiment [1] and in experiment [2] was less than 400 nM throughout.
Regarding `Cc1ncc(-c2cc(C(F)(F)F)cnc2-c2nnc(N[C@H]3N=C(c4ccccc4)c4cccc(F)c4NC3=O)o2)cn1` [Example 27], the EC50 in experiment [1] and in experiment [2] was less than 400 nM each time.
`CCc1ncc(-c2cc(C(F)(F)F)cnc2-c2nnc(N[C@H]3N=C(c4ccccc4)c4cccc(F)c4NC3=O)o2)cn1` [Example 28]: the concentration for a half-maximal effect (EC50) in experiment [1] and in experiment [2] was less than 400 nM each time.
Regarding `CCc1ncc(-c2cc(C(F)(F)F)cnc2-c2nnc(N[C@H]3N=C(c4ccccc4)c4ccccc4NC3=O)o2)cn1` [Example 29], the 50% effective concentration (EC50) in experiment [1] and in experiment [2] was less than 400 nM throughout.
For `CCc1ncc(-c2sc(C(F)(F)F)nc2-c2nnc(N[C@H]3N=C(c4ccccc4)c4cccc(F)c4NC3=O)o2)cn1` [Example 32], the EC50 in experiment [1] and in experiment [2] was less than 400 nM each time.
Turning to `Cc1ncc(-c2sc(C(F)(F)F)nc2-c2nnc(NC3N=C(c4ccccc4)c4ccccc4NC3=O)o2)cn1` (stereo not shown) [Example 33], the EC50 in experiment [1] and in experiment [2] was less than 400 nM in each case.
In the case of `O=C1Nc2ccccc2C(c2ccccc2)=NC1Nc1nnc(-c2nc(C(F)(F)F)sc2-c2cnc(C3CC3)nc2)o1` (stereo not shown) [Example 34], the EC50 in experiment [1] and in experiment [2] was less than 400 nM throughout.
For the molecule `CCc1ncc(-c2sc(C(F)(F)F)nc2-c2nnc(NC3N=C(c4ccccc4)c4ccccc4NC3=O)o2)cn1` (stereo not shown) [Example 35], the EC50 in experiment [1] and in experiment [2] was less than 400 nM in each case.
`CCc1ncc(-c2sc(C)nc2-c2nnc(N[C@H]3N=C(c4ccccc4)c4cccc(F)c4NC3=O)o2)cn1` [Example 36]: the EC50 in experiment [1] and in experiment [2] was less than 400 nM in each case.
